Test results: ChEMBL document CHEMBL1201862, “PubChem BioAssay data set” (2004)
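Following 48 hours of exposure in 96-well plates, responses at five concentrations were used to interpolate endpoints linearly. GI50: concentration for 50% inhibition of growth.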 Active and inactive are the calls of the source. No stated cut-off is given here; in the data, active = GI50 up to about 1.1 µM and inactive = higher.

Experiments:
Experiment in all cases: growth of human tumour cells (NCI), 48 h
OVCAR-8 = system: OVCAR-8
SNB-19 = system: SNB-19
TK-10 = system: TK-10
786-0 = system: 786-0
SNB-75 = system: SNB-75
RPMI-8226 = system: RPMI-8226
LOX IMVI = system: LOX IMVI
NCI-H226 = system: NCI-H226
HCC 2998 = system: HCC 2998
Hs-578T = system: Hs-578T
UACC-62 = system: UACC-62
NCI-H460 = system: NCI-H460
MDA-MB-231 = system: MDA-MB-231
SK-MEL-5 = system: SK-MEL-5
UACC-257 = system: UACC-257
SF-268 = system: SF-268
OVCAR-5 = system: OVCAR-5
SF-539 = system: SF-539
SK-OV-3 = system: SK-OV-3
MDA-N = system: MDA-N

Measured: GI50

CS/C(C#N)=C(\C#N)SC
inactive: OVCAR-8 2.74 µM | SNB-19 25.7 µM | TK-10 6.55 µM | 786-0 4.89 µM | SNB-75 52.2 µM | RPMI-8226 1.88 µM | LOX IMVI 2.5 µM | NCI-H226 2.55 µM | HCC 2998 2.99 µM | Hs-578T 31.8 µM | UACC-62 2.94 µM | NCI-H460 21.4 µM | MDA-MB-231 24.7 µM | SK-MEL-5 18.2 µM | UACC-257 10.9 µM | SF-268 11.9 µM | OVCAR-5 26.3 µM | SF-539 9.64 µM

CCOC(=O)C1=C(C)NC(=O)NC1c1coc2cc(C)cc(C)c2c1=O (configuration not stated)
inactive: OVCAR-8 64.1 µM | SNB-19 90.2 µM | TK-10 38.9 µM | 786-0 67.9 µM | SNB-75 3.27 µM | RPMI-8226 41.7 µM | LOX IMVI 69.2 µM | NCI-H226 > 100 µM | Hs-578T 56.2 µM | UACC-62 61.5 µM | NCI-H460 25.9 µM | MDA-MB-231 > 61.5 µM | SK-MEL-5 > 51.2 µM | SK-OV-3 > 66.5 µM | UACC-257 40.2 µM | SF-268 57.5 µM | OVCAR-5 49 µM | SF-539 75.9 µM

O=C(O)[C@H](Cc1ccccc1)NCCN1CCC[C@H]1C(=O)O
inactive: OVCAR-8 > 100 µM | SNB-19 > 100 µM | 786-0 > 100 µM | RPMI-8226 > 100 µM | UACC-62 70.8 µM | NCI-H460 42.1 µM | MDA-MB-231 > 100 µM | SK-MEL-5 > 100 µM | SK-OV-3 > 100 µM | SF-268 > 100 µM | OVCAR-5 > 100 µM | MDA-N > 100 µM | SF-539 > 100 µM

O=C(O)CNc1ccc2c(c1)Cc1cc(Br)ccc1-2
inactive: OVCAR-8 23.9 µM | SNB-19 24.3 µM | TK-10 31.1 µM | 786-0 39.6 µM | SNB-75 34.6 µM | RPMI-8226 19.9 µM | LOX IMVI 26.6 µM | NCI-H226 21.2 µM | Hs-578T 4.65 µM | UACC-62 17.4 µM | NCI-H460 21.8 µM | MDA-MB-231 19.7 µM | SK-MEL-5 6.55 µM | SK-OV-3 26.5 µM | UACC-257 22.8 µM | SF-268 28.5 µM | OVCAR-5 27.5 µM | SF-539 23.7 µM

N#Cc1c(-c2ccc(Cl)cc2)c(C#N)c(=O)n(NS(=O)(=O)c2ccccc2)c1-c1ccccc1
inactive: SNB-19 > 25 µM | TK-10 > 25 µM | 786-0 > 25 µM | RPMI-8226 17.2 µM | LOX IMVI > 25 µM | HCC 2998 > 25 µM | UACC-62 > 25 µM | NCI-H460 > 25 µM | MDA-MB-231 > 25 µM | SK-MEL-5 > 25 µM | SK-OV-3 > 25 µM | UACC-257 > 25 µM | OVCAR-5 > 25 µM | MDA-N > 25 µM | SF-539 > 25 µM

Cc1ccc(S(=O)(=O)OI(O)CC(F)(F)F)cc1
inactive: OVCAR-8 > 100 µM | TK-10 > 100 µM | 786-0 > 100 µM | SNB-75 > 100 µM | RPMI-8226 > 100 µM | LOX IMVI > 100 µM | NCI-H226 > 100 µM | HCC 2998 > 100 µM | UACC-62 > 100 µM | NCI-H460 > 100 µM | MDA-MB-231 > 100 µM | SK-MEL-5 > 100 µM | SK-OV-3 > 100 µM | UACC-257 > 100 µM | SF-268 > 100 µM | OVCAR-5 > 100 µM | SF-539 > 100 µM

COC(=O)CC[N+]1([O-])CC1
inactive: OVCAR-8 > 100 µM | SNB-19 > 100 µM | TK-10 > 100 µM | 786-0 > 100 µM | SNB-75 > 100 µM | RPMI-8226 > 100 µM | LOX IMVI > 100 µM | NCI-H226 > 100 µM | HCC 2998 > 100 µM | Hs-578T > 100 µM | UACC-62 > 100 µM | NCI-H460 > 100 µM | MDA-MB-231 > 100 µM | SK-MEL-5 > 100 µM | SK-OV-3 > 100 µM | UACC-257 > 100 µM | SF-268 > 100 µM | OVCAR-5 > 100 µM | SF-539 > 100 µM

Nn1c(S)nnc1CCCCCCCCc1nnc(S)n1N
inactive: OVCAR-8 > 100 µM | SNB-19 > 100 µM | 786-0 > 100 µM | SNB-75 > 100 µM | RPMI-8226 > 100 µM | NCI-H226 > 100 µM | HCC 2998 > 100 µM | UACC-62 > 100 µM | NCI-H460 > 100 µM | MDA-MB-231 > 100 µM | SK-OV-3 > 100 µM | UACC-257 > 100 µM | SF-268 > 100 µM | OVCAR-5 > 100 µM | MDA-N > 100 µM | SF-539 > 100 µM

CC(=O)/C=C/CCC(=O)/C=C/C(=O)OC(CCC(=O)/C=C/C(=O)O)CC(C)=O (configuration not stated)
inactive: OVCAR-8 > 100 µM | SNB-19 > 100 µM | TK-10 > 100 µM | 786-0 > 100 µM | RPMI-8226 54.7 µM | NCI-H226 42.6 µM | HCC 2998 > 100 µM | UACC-62 1.19 µM | NCI-H460 > 100 µM | MDA-MB-231 > 100 µM | SK-MEL-5 > 100 µM | UACC-257 > 100 µM | SF-268 > 100 µM | OVCAR-5 > 100 µM | MDA-N > 100 µM | SF-539 > 100 µM

N#C[C@](CO)(NC(=O)OCc1ccccc1)C(F)F
inactive: OVCAR-8 > 100 µM | SNB-19 > 100 µM | TK-10 > 100 µM | 786-0 > 100 µM | SNB-75 > 100 µM | RPMI-8226 > 100 µM | LOX IMVI > 100 µM | NCI-H226 > 100 µM | HCC 2998 > 100 µM | Hs-578T > 100 µM | UACC-62 > 100 µM | NCI-H460 > 100 µM | MDA-MB-231 > 100 µM | SK-MEL-5 > 100 µM | SK-OV-3 > 100 µM | UACC-257 > 100 µM | SF-268 > 100 µM | OVCAR-5 > 100 µM

Cc1cn(Cc2ccccc2CCl)c(=O)[nH]c1=O
inactive: OVCAR-8 12.1 µM | SNB-19 12.3 µM | TK-10 15.3 µM | 786-0 14.2 µM | SNB-75 14.6 µM | HCC 2998 15.3 µM | Hs-578T 14.2 µM | UACC-62 4.68 µM | NCI-H460 21.1 µM | SK-MEL-5 7.4 µM | SK-OV-3 26.4 µM | UACC-257 13.4 µM | SF-268 13 µM | OVCAR-5 23.3 µM | SF-539 5.56 µM

Cc1cccc(NC(=O)c2cccc([N+](=O)[O-])c2O)c1C
inactive: OVCAR-8 33.7 µM | SNB-19 18.7 µM | TK-10 53.6 µM | 786-0 37.7 µM | SNB-75 22.8 µM | RPMI-8226 3.14 µM | LOX IMVI 23 µM | NCI-H226 22.1 µM | HCC 2998 28.4 µM | Hs-578T 43.6 µM | UACC-62 28 µM | NCI-H460 20.6 µM | MDA-MB-231 37.9 µM | SK-MEL-5 9.62 µM | SK-OV-3 28.4 µM | UACC-257 24.9 µM | SF-268 33.2 µM | OVCAR-5 30.6 µM | SF-539 27.5 µM
